Target: T1, eIF2B decamer, eIF2B(αβδγε)2 (ISRIB pocket at the eIF2Bβ/eIF2Bδ interface) (Homo sapiens, UniProt P49770+Q9UI10)
T1 construct: gene EIF2B2; full eIF2B(αβδγε)2 decamer assembled from purified eIF2Bβγδε and eIF2Bα2; with eIF2Bβ (EIF2B2), with eIF2Bα, eIF2Bγ, eIF2Bε
Assay: fluorescence polarization competition with FAM-ISRIB; also FRET assembly of tetramers (EC50 […]), re-refined cryo-EM model
Format: binding

Question: With `O=C(COc1ccc(Cl)cc1)N[C@H]1CC[C@H](NC(=O)COc2ccc(Cl)cc2)CC1` [ISRIB] as the compound, how does the IC50 read?
Answer: 37 nM

Source: publication PMC7990499, “eIF2B conformation and assembly state regulate the integrated stress response” (eLife, 2021)
